Assays:
TNFα = experiment: Serum TNFα (total and free) in mouse inflammation model; format: in vivo, mice
Procedure: (§1) In the following examples, the protective effects of BisEDT was studied in an inflammation model of mice. Male swiss white mice weighing between 30-35 grams were used. The cecum of the mice were ligated and perforated to cause inflammation. BisEDT was prepared in a molar concentration of 1:2 by adding 4.9 pi 10.19 M EDT to 1 ml of 50 mM Bi(NO3)3 in propylene glycol.
(§2) A total of eight groups each containing 10-20 mice in each group were used for the next phase of the study. Five hours after initiation of inflammation, 20 ug/kg BisEDT was administered intravenously with the combination of different biologics indicated in Table 2 with one group that received vehicle only (control). The survival time for each group was recorded. In another eight groups of mice 10 in each group was injected similarly with the same combination of treatment and control and several measures of immune response were assessed such as measurement of pro- and anti-inflammatory cytokines during BisEDT treatment of these mice. […] From 60-70% of mice survived when treated with one or two doses of 20 μg/kg BisEDT (p<0.05), whereas doses 10-fold higher or lower protected only 30-40% of mice (Table 1). […] However, only free TNFα, not total TNFα or free IL-10, correlated strongly with survival (r=−0.92). IL-10 is an anti-inflammatory cytokine and under certain circumstances it can cause immunosuppression. In order to test whether IL-10 plays a role in the model, monoclonal antibodies to IL-10 (that neutralizes IL-10) were used. […] Additionally, IL10 or IL-10+BisEDT provided no protection for the mice. A general damping down of cytokine production was observed, yet it was the reduction in free TNFα that correlated most closely with prevention. BisEDT appears to preserve the normal cellular response to activating stimuli and to protect mice from immune suppression or overwhelming immune reaction.

IL-10 = experiment: Serum free IL-10 in mouse inflammation model; format: in vivo, mice; conditions: Table 2; treatment i.v. five hours after initiation of inflammation; BisEDT 20 ug/kg
Procedure: as §1
A total of eight groups each containing 10-20 mice in each group were used for the next phase of the study. Five hours after initiation of inflammation, 20 ug/kg BisEDT was administered intravenously with the combination of different biologics indicated in Table 2 with one group that received vehicle only (control). The survival time for each group was recorded. In another eight groups of mice 10 in each group was injected similarly with the same combination of treatment and control and several measures of immune response were assessed such as measurement of pro- and anti-inflammatory cytokines during BisEDT treatment of these mice. […] From 60-70% of mice survived when treated with one or two doses of 20 μg/kg BisEDT (p<0.05), whereas doses 10-fold higher or lower protected only 30-40% of mice (Table 1). […] However, only free TNFα, not total TNFα or free IL-10, correlated strongly with survival (r=−0.92). IL-10 is an anti-inflammatory cytokine and under certain circumstances it can cause immunosuppression. […]

Male swiss white mice = experiment: Survival in inflammation model of mice (cecum ligated and perforated); format: in vivo; conditions: for % Survival 1 dose: tail vein once daily for three days; for % Survival 1 dose / % Survival 2 doses: monitored 8 days; for % Survival 2 doses: tail vein twice daily for three days; for % Survived / Survived/Total: Table 2, treatment i.v. five hours after initiation of inflammation, BisEDT 20 ug/kg
Procedure: as §1
A total of sixty mice, 10 in each group, were used in the survival phase of experimentation. Five hours after CLP, BisEDT was administered intravenously in five groups via the tail vein, once a day for three days, at doses of 0.2, 2, 20, 200 and 2000 ug Bi^3+/kg, while the last group received vehicle only. The survival time for each group of mice was recorded to determine an optimal dosage of BisEDT. The study was repeated using limited doses to confirm the results, and to determine if more frequent dosing would increase or prolong survival. This group was injected twice daily with the same doses of BisEDT, with one control group.
as §2
After inflammation, BisEDT was introduced into the tail vein once or twice daily for three days. Mice were monitored for 8 days to determine survival. *p<0.05, compared to control.

[1] = Table 2, treatment i.v. five hours after initiation of inflammation, BisEDT 20 ug/kg
[2] = 20 μg Bi3+/kg BW, *p<0.05 vs control

Bismuth-ethanedithiol [BisEDT]
changes in cytokine levels (IL1β, TNFα, IL-10, TGFβ), in words (TNFα; BisEDT-treated mice, not nearly to the same extent as in the untreated group): significant changes in TNFα only
sTNFα (free fraction), serum (TNFα; [1]): 100 pg/mL
tTNFα (total fraction), serum (TNFα; [1]): 330 ng/mL
sIL-10 (free fraction), serum (IL-10): 595 pg/mL
% Survival 1 dose (Male swiss white mice; 2 μg Bi3+/kg BW): 40%
% Survival 2 doses (Male swiss white mice; 2 μg Bi3+/kg BW): 40%
% Survival 1 dose (Male swiss white mice; [2]): 60* %
% Survival 2 doses (Male swiss white mice; [2]): 70* %
% Survival 1 dose (Male swiss white mice; 200 μg Bi3+/kg BW): 40%
% Survival 2 doses (Male swiss white mice; 200 μg Bi3+/kg BW): 30%
% Survived (Male swiss white mice): 60%
Survived/Total (Male swiss white mice): 6/10
% of mice protected (Male swiss white mice; doses 10-fold higher or lower than 20 μg/kg): 30-40%
% of mice survived (Male swiss white mice; one or two doses of 20 μg/kg BisEDT (p<0.05)): 60-70%

IL-10: IL-10 is an anti-inflammatory cytokine
% Survived (Male swiss white mice): 0%
Survived/Total (Male swiss white mice): 0/10
protection of mice (in words) (Male swiss white mice; mouse inflammation model): no protection
